Source: the supplement of paper PMC10307832

Columns and labels:
Assay in all cases: relative viability (nuclei count vs DMSO), 5 days (fraction); higher = more cells survive
Bosutinib + OSI-027 = compound: COc1cc(Nc2c(C#N)cnc3cc(OCCCN4CCN(C)CC4)c(OC)cc23)c(Cl)cc1Cl [Bosutinib] + COc1cccc2cc(-c3nc([C@H]4CC[C@H](C(=O)O)CC4)n4ncnc(N)c34)[nH]c12 [OSI-027] (partner 0.5 µM)
Procedure, shortened: (§1)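 Lung cancer cell lines were pin-tool dosed in 1536-well plates on the day after seeding, with either a lone drug or a fixed anchor-drug dose plus five library-drug doses (not always all listed) in √10 steps. Nuclei were counted on 4× images after 5 days. Relative viability is the ratio of treated-well to vehicle-well nuclei counts, with each value a median of duplicate plates.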

Bosutinib + Pictilisib = compound: COc1cc(Nc2c(C#N)cnc3cc(OCCCN4CCN(C)CC4)c(OC)cc23)c(Cl)cc1Cl [Bosutinib] + CS(=O)(=O)N1CCN(Cc2cc3nc(-c4cccc5[nH]ncc45)nc(N4CCOCC4)c3s2)CC1 [Pictilisib] (partner 1 µM)
Procedure, shortened: as §1

Bosutinib + Lapatinib = compound: COc1cc(Nc2c(C#N)cnc3cc(OCCCN4CCN(C)CC4)c(OC)cc23)c(Cl)cc1Cl [Bosutinib] + CS(=O)(=O)CCNCc1ccc(-c2ccc3ncnc(Nc4ccc(OCc5cccc(F)c5)c(Cl)c4)c3c2)o1 [Lapatinib] (partner 2 µM)
Procedure, shortened: as §1

Bosutinib + Navitoclax = compound: COc1cc(Nc2c(C#N)cnc3cc(OCCCN4CCN(C)CC4)c(OC)cc23)c(Cl)cc1Cl [Bosutinib] + CC1(C)CCC(c2ccc(Cl)cc2)=C(CN2CCN(c3ccc(C(=O)NS(=O)(=O)c4ccc(N[C@H](CCN5CCOCC5)CSc5ccccc5)c(S(=O)(=O)C(F)(F)F)c4)cc3)CC2)C1 [Navitoclax] (partner 0.5 µM)
Procedure, shortened: as §1

Bosutinib + Bortezomib = compound: COc1cc(Nc2c(C#N)cnc3cc(OCCCN4CCN(C)CC4)c(OC)cc23)c(Cl)cc1Cl [Bosutinib] + CC(C)C[C@H](NC(=O)[C@H](Cc1ccccc1)NC(=O)c1cnccn1)B(O)O [Bortezomib] (partner 0.002 µM)
Procedure, shortened: as §1

| Cell Line | relative viability (Bosutinib + OSI-027; first compound 0.01 µM) | relative viability (Bosutinib + OSI-027; first compound 0.03162 µM) | relative viability (Bosutinib + OSI-027; first compound 0.1 µM) | relative viability (Bosutinib + OSI-027; first compound 1 µM) | relative viability (Bosutinib + Pictilisib; first compound 0.01 µM) | relative viability (Bosutinib + Pictilisib; first compound 0.03162 µM) | relative viability (Bosutinib + Pictilisib; first compound 0.1 µM) | relative viability (Bosutinib + Pictilisib; first compound 1 µM) | relative viability (Bosutinib + Lapatinib; first compound 0.01 µM) | relative viability (Bosutinib + Lapatinib; first compound 0.03162 µM) | relative viability (Bosutinib + Lapatinib; first compound 0.1 µM) | relative viability (Bosutinib + Lapatinib; first compound 1 µM) | relative viability (Bosutinib + Navitoclax; first compound 0.01 µM) | relative viability (Bosutinib + Navitoclax; first compound 0.03162 µM) | relative viability (Bosutinib + Navitoclax; first compound 0.1 µM) | relative viability (Bosutinib + Navitoclax; first compound 1 µM) | relative viability (Bosutinib + Bortezomib; first compound 0.01 µM) | relative viability (Bosutinib + Bortezomib; first compound 0.03162 µM) | relative viability (Bosutinib + Bortezomib; first compound 0.1 µM) | relative viability (Bosutinib + Bortezomib; first compound 1 µM) |
| --- | --- | --- | --- | --- | --- | --- | --- | --- | --- | --- | --- | --- | --- | --- | --- | --- | --- | --- | --- | --- |
| 201T | 0.874 | 0.712 | 0.725 | 0.633 | 0.685 | 0.653 | 0.66 | 0.615 | 1.03 | 1.05 | 1.01 | 0.96 | 1.2 | 1.2 | 1.2 | 1.14 | 1.16 | 1.05 | 1.14 | 1.05 |
| NCI-H3122 | 1.05 | 1.04 | 1.03 | 1.17 | 0.623 | 0.609 | 0.624 | 0.761 | 0.99 | 1.05 | 1.02 | 0.933 | 0.99 | 0.972 | 1.01 | 1.03 | 1 | 1.1 | 1.04 | 1.06 |
| A549 | – | – | – | – | 0.442 | 0.447 | 0.494 | 0.513 | 0.949 | 1.05 | 1.06 | 1.03 | 1.2 | 1.26 | 1.27 | 1.07 | – | – | – | – |
| NCI-H727 | 0.605 | 0.817 | 0.564 | 0.529 | 0.447 | 0.435 | 0.297 | 0.282 | 0.781 | 0.767 | 0.781 | 0.384 | 0.429 | 0.519 | 0.437 | 0.291 | 0.913 | 0.777 | 0.969 | 0.71 |
| NCI-H441 | 0.622 | 0.71 | 0.719 | 0.628 | 0.669 | 0.483 | 0.634 | 0.459 | – | – | – | – | 0.589 | 0.599 | 0.411 | 0.518 | 0.579 | 0.726 | 0.44 | 0.806 |
| HOP-62 | 0.801 | 0.848 | 0.942 | 0.875 | 0.898 | 0.787 | 0.698 | 0.819 | 0.977 | 1.12 | 1.08 | 1.01 | 0.901 | 0.982 | 1.04 | 1.09 | 0.839 | 0.755 | 0.548 | 0.904 |
| RERF-LC-KJ | 0.594 | 0.59 | 0.607 | 0.473 | 0.544 | 0.581 | 0.576 | 0.459 | 0.836 | 0.832 | 0.878 | 0.905 | 0.845 | 1.08 | 0.893 | 0.743 | 1.08 | 1.08 | 1.07 | 1.05 |
| LCLC-103H | 0.458 | 0.438 | 0.417 | 0.496 | 0.632 | 0.68 | 0.702 | 0.646 | – | – | – | – | – | – | – | – | 1.03 | 1.13 | 1.13 | 0.936 |
| ChaGo-K-1 | 0.568 | 0.501 | 0.576 | 0.647 | 0.544 | 1.05 | 1.06 | 1.14 | – | – | – | – | 0.602 | 1.33 | 1.31 | 1.56 | 0.922 | 1.12 | 1.12 | 1.37 |
| NCI-H1703 | – | – | – | – | 0.246 | 0.235 | 0.242 | 0.228 | 1.04 | 1.1 | 0.825 | 0.653 | 0.985 | 1.06 | 0.922 | 0.43 | 0.34 | 0.332 | 0.402 | 0.236 |
| LK-2 | 0.256 | 0.253 | 0.192 | 0.185 | 0.645 | 0.603 | 0.577 | 0.378 | 0.848 | 1.12 | 0.944 | 0.803 | 0.955 | 0.943 | 0.838 | 0.74 | – | – | – | – |
| NCI-H650 | 0.634 | 0.502 | 0.588 | 0.628 | 0.913 | 0.878 | 0.914 | 0.997 | 0.889 | 1.07 | 0.948 | 1.15 | – | – | – | – | 0.875 | 0.854 | 0.858 | 0.962 |
| NCI-H661 | 0.682 | 0.804 | 0.744 | 0.56 | 0.351 | 0.53 | 0.386 | 0.327 | 0.489 | 0.511 | 0.468 | 0.354 | – | – | – | – | 1.05 | 0.802 | 0.733 | 0.446 |
| NCI-H1793 | 0.254 | 0.276 | 0.262 | 0.23 | 0.394 | 0.321 | 0.383 | 0.292 | 0.864 | 0.839 | 0.438 | 0.497 | 0.466 | 0.479 | 0.456 | 0.263 | – | – | – | – |
| NCI-H1395 | 0.679 | 0.662 | 0.771 | 0.629 | 0.597 | 0.758 | 0.818 | 0.719 | 1.26 | 1.06 | 0.914 | 1.08 | 1.45 | 1.01 | 1.34 | 1.12 | – | – | – | – |
| SK-MES-1 | 0.64 | 0.681 | 0.671 | 0.38 | 0.374 | 0.351 | 0.437 | 0.305 | 0.435 | 0.512 | 0.555 | 0.505 | 1.21 | 0.97 | 1.1 | 1.3 | – | – | – | – |
| NCI-H1563 | 0.794 | 0.831 | 0.761 | 0.717 | 0.611 | 0.607 | 0.613 | 0.526 | 0.869 | 0.931 | 0.84 | 0.758 | – | – | – | – | 0.885 | 0.775 | 0.784 | 0.659 |
| IA-LM | – | – | – | – | – | 0.365 | 0.317 | 0.359 | 0.811 | 0.848 | 0.92 | 0.798 | 0.779 | 0.816 | 0.842 | 0.764 | 0.797 | 0.827 | 0.881 | 0.8 |
